Laboratory results reported in patent publication US6100267A, “Quinoline- and naphthalenecarboxamides, pharmaceutical compositions and methods of inhibiting calpain” (SmithKline Beecham Corporation, priority 1999, dated 2000).
Structures can show the parent of a compound that is named as a salt.

These molecules were tested on calpain (assay: inhibition of calpain in vitro, synthetic fluorogenic substrates (Sasaki et al.)). Details: percent decrease in rate of substrate hydrolysis.
Format: biochemical
Experimental: The assays were performed using synthetic fluorogenic substrates. Inhibition of enzyme activity was calculated on the percent decease in the rate of substrate hydrolysis in the presence of inhibitor relative to the rate in its absence. IC50 s(nM) were calculated.

Row | IC50 [nM] | Compound
1 | 19 | O=C[C@H](Cc1ccccc1)NC(=O)c1cc(-c2ccccc2-c2ccccc2)nc2ccccc12 [Example 6, (S)-2-[1,1'-Biphenyl]-2-yl-N-(1-formyl-2-phenylethyl)-4-quinolinecarboxamide]
2 | 160 | O=C[C@H](CCCCNC(=O)OCc1ccncc1)NC(=O)c1cc(-c2ccccc2)nc2ccccc12 [Example 11, (S)-N-(1-Formyl-5-[(4-pyridylmethoxy)carbonylamino]pentyl]-2-phenyl-4-quinolinecarboxamide dihydrochloride salt]
3 | 77 | CCCCNC(=O)C(=O)[C@H](Cc1ccccc1)NC(=O)c1cc(C#Cc2ccccc2)nc2ccccc12 [Example 13, N-[3-(n-butylamino)-2,3-dioxo-1-(phenylmethyl)]-2-(phenylethynyl)-4-quinolinecarboxamide]
4 | 123 | O=C[C@H](Cc1ccccc1)NC(=O)c1cc(C23CC4CC(CC(C4)C2)C3)nc2ccccc12 [Example 4, (S)-2-(1-Adamantyl)-N-(1-formyl-2-phenylethyl)-4-quinolinecarboxamide]
5 | 32 | O=C[C@H](Cc1ccccc1)NC(=O)c1cc(-c2ccc(Oc3ccccc3)cc2)nc2ccccc12 [Example 5, (S)-N-(1-Formyl-2-phenylethyl)-2-(4-phenoxyphenyl)-4-quinolinecarboxamide]
6 | 65 | O=C[C@H](Cc1ccccc1)NC(=O)c1cc(-c2ccccc2)nc2ccccc12 [Example 1, (S)-N-(1-formyl-2-phenylethyl)-2-phenyl-4-quinolinecarboxamide]
7 | 38 | O=C[C@H](Cc1ccccc1)NC(=O)c1cc(N2CCN(c3ccccc3)CC2)nc2ccccc12 [Example 8, (S)-N-(1-Formyl-2-phenylethyl)-2-(4-phenyl-1-piperazinyl)-4-quinolinecarboxamide]
8 | 20 | O=C[C@H](Cc1ccccc1)NC(=O)c1cc(-c2ccc(-c3ccccc3)cc2)nc2ccccc12 [Example 3, (S)-2-[1.1'-Biphenyl]-4-yl-N-(1-formyl-2-phenylethyl)-4-quinolinecarboxamide]
9 | 46 | O=C[C@H](Cc1ccccc1)NC(=O)c1cc(-c2ccc(-c3cccnc3)cc2)nc2ccccc12 [Example 9, (S)-N-(1-Formyl-2-phenylethyl)-2-[4-(3-pyridinyl)phenyl]-4-quinolinecarboxamide]
10 | 66 | O=C[C@H](Cc1ccccc1)NC(=O)c1cc(-c2ccc(Cl)cc2)nc2ccccc12 [Example 2, (S)-2-(4-Chlorophenyl)-N-(1-formyl-2-phenylethyl)-4-quinolinecarboxamide]
11 | 42 | O=C[C@H](CCCCNS(=O)(=O)c1ccccc1)NC(=O)c1cc(-c2ccccc2)nc2ccccc12 [Example 10, (S)-N-[1-Formyl-5-[(phenylsulfonyl)amino]pentyl]-2-phenyl-4-quinolinecarboxamide]
12 | 12 | O=C[C@H](Cc1ccccc1)NC(=O)c1cc(C#Cc2ccccc2)nc2ccccc12 [Example 12, (S)-N-(1-formyl-2-phenylethyl)-2-(phenylethynyl)-4-quinolinecarboxamide]
